pIC50: −log10 of the molar value.
Assays:
[1] = tested on: granulocyte-macrophage (CFU-GM), erythroid (BFU-E) and multipotential (CFU-GEMM) progenitor cells; assay: Progenitor/stem cell mobilization in mice after single subcutaneous injection; format: in vivo, C3H/HeJ mice; conditions: for BFU (BFU-E), Mean / GEMM (CFU-GEMM), Mean / GM (CFU-GM), Mean: progenitor cells per mL of blood
Experimental: All experiments were performed in […] mice. […] The progenitors were stimulated to form colonies in vitro with the combination of 1 U/mL rhu EPO, 50 ng/mL rmu SLF, 5% vol/vol pokeweed mitogen mouse spleen cell conditioned medium (PWMSCM), and 0.1 mM hemin. Plates were scored 7 days after incubation at 37° C., 5% CO2, lowered […] and in a humidified chamber.
In the first experiment (data shown in Table 6), mice received a dose of 5 mg/kg- and the number of progenitors in the circulating blood was measured at various time points (0.25, 0.5, 1, 2, 6 and 24 hours).

CXCR7 = biological target: T1, CXCR7 (Homo sapiens, UniProt P25106); set-up: Inhibition of SDF-1α binding to CXCR7: dose or concentration left out as unconfirmed; conditions: cited from earlier work
T1 construct: expressed in transfected cells
T1 sequence (P25106 whole entry): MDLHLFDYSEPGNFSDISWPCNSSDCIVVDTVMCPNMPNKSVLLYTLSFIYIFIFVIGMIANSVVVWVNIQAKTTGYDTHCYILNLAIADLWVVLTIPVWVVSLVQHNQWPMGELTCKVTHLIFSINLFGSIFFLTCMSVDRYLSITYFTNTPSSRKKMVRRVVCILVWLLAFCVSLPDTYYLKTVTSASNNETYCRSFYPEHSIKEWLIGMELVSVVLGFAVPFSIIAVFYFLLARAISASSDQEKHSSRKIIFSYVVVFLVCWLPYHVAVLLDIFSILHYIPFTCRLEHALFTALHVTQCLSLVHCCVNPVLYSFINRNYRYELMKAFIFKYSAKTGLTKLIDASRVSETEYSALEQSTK

CCR7 = biological target: T2, CCR7 (Homo sapiens, UniProt P32248); conditions: cited from earlier work
T2 construct: endogenous in cells
T2 sequence (P32248 25-378): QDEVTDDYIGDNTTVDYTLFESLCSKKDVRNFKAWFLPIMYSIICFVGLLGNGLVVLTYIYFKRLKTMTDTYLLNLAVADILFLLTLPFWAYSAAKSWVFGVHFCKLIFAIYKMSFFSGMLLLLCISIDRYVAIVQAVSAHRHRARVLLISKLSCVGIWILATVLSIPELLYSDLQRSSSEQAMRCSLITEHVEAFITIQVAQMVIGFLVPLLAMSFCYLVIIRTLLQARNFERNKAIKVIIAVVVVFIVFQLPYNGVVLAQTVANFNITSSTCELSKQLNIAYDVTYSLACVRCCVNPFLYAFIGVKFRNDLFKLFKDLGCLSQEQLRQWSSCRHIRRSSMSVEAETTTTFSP

[2] = human, in vivo
[3] = Clinical studies, oral administration to healthy volunteers and HIV patients
CXCR3 = biological target: T3, CXCR3 (Homo sapiens, UniProt P49682); conditions: cited from earlier work
T3 construct: expressed in transfected cells
T3 sequence (P49682 1-368): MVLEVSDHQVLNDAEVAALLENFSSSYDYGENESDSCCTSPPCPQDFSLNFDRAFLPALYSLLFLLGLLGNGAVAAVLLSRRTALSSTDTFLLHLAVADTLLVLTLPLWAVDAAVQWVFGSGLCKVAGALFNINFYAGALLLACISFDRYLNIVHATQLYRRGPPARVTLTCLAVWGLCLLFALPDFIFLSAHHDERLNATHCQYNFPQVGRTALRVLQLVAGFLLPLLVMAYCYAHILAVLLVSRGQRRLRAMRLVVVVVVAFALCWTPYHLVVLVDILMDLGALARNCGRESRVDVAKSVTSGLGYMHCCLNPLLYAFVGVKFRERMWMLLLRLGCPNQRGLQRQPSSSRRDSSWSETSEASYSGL

BLT1 = biological target: T4, BLT1 (Homo sapiens, UniProt Q15722); conditions: cited from earlier work
T4 construct: expressed in transfected cells
T4 sequence (Q15722 whole entry): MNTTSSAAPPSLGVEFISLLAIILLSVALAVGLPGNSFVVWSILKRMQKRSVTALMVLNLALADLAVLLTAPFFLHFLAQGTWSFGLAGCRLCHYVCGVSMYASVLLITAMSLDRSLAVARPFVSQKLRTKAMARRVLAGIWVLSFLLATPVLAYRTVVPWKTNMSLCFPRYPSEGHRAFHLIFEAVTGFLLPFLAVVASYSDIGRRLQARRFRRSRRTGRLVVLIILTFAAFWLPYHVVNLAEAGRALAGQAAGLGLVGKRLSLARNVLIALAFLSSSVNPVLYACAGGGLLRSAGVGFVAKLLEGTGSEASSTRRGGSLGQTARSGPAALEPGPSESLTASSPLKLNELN

[4] = Table 6, 5 mg/kg s.c., @ - 2′ (2 h)
[5] = Table 6, 5 mg/kg s.c., @ - 6′ (6 h)
[6] = Table 6, 5 mg/kg s.c., @ - 15″ ([…])
[7] = Table 6, 5 mg/kg s.c., @ - 24′ (24 h)
[8] = Table 6, 5 mg/kg s.c., @ - 30″ (0.5 h)
[9] = Table 6, 5 mg/kg s.c., @ - 60″ (1 h)
[10] = Table 7, 1 hour post-injection, 1.5 mg/kg s.c.
[11] = Table 7, 1 hour post-injection, 5 mg/kg s.c.
[12] = Table 7, 1 hour post-injection, 10 mg/kg s.c.
[13] = Table 7, 1 hour post-injection, 20 mg/kg s.c.
[14] = Table 8, 5 mg/kg s.c., @ - 2′ (2 h)
[15] = Table 8, 5 mg/kg s.c., @ - 15″ ([…])
[16] = Table 8, 5 mg/kg s.c., @ - 30″ (0.5 h)
[17] = Table 8, 5 mg/kg s.c., @ - 60″ (1 h)
[18] = time course, 5 mg/kg s.c., 30-60 min.

Structure (SMILES): NCCCCN(Cc1nc2ccccc2[nH]1)[C@H]1CCCc2cccnc21 [X4P-001]
- BFU (BFU-E), Mean [1, 4]: 165.3
- GEMM (CFU-GEMM), Mean [1, 4]: 68.9
- GM (CFU-GM), Mean [1, 4]: 897.5
- BFU (BFU-E), Mean [1, 5]: 99.9
- GEMM (CFU-GEMM), Mean [1, 5]: 37.6
- GM (CFU-GM), Mean [1, 5]: 387.5
- BFU (BFU-E), Mean [1, 6]: 148.8
- GEMM (CFU-GEMM), Mean [1, 6]: 65.6
- GM (CFU-GM), Mean [1, 6]: 785.1
- BFU (BFU-E), Mean [1, 7]: 84.6
- GEMM (CFU-GEMM), Mean [1, 7]: 37.7
- GM (CFU-GM), Mean [1, 7]: 386.3
- BFU (BFU-E), Mean [1, 8]: 230.4
- GEMM (CFU-GEMM), Mean [1, 8]: 99.6
- GM (CFU-GM), Mean [1, 8]: 1273.8
- BFU (BFU-E), Mean [1, 9]: 235.1
- GEMM (CFU-GEMM), Mean [1, 9]: 103.1
- GM (CFU-GM), Mean [1, 9]: 866.0
- Nucleated Cellularity PBL-LD, Mean ([1]; Table 6 time course, 5 mg/kg s.c., @ - 2′ (2 h)): 8.29e+06 mL⁻¹
- Nucleated Cellularity PBL-LD, Mean ([1]; Table 6 time course, 5 mg/kg s.c., @ - 6′ (6 h)): 5.66e+06 mL⁻¹
- Nucleated Cellularity PBL-LD, Mean ([1]; Table 6 time course, 5 mg/kg s.c., @ - 15″ ([…])): 5.1e+06 mL⁻¹
- Nucleated Cellularity PBL-LD, Mean ([1]; Table 6 time course, 5 mg/kg s.c., @ - 24′ (24 h)): 4.31e+06 mL⁻¹
- Nucleated Cellularity PBL-LD, Mean ([1]; Table 6 time course, 5 mg/kg s.c., @ - 30″ (0.5 h)): 6.14e+06 mL⁻¹
- Nucleated Cellularity PBL-LD, Mean ([1]; Table 6 time course, 5 mg/kg s.c., @ - 60″ (1 h)): 6.92e+06 mL⁻¹
- BFU (BFU-E), Mean [1, 10]: 143.8
- GM (CFU-GM), Mean [1, 10]: 428.0
- BFU (BFU-E), Mean [1, 11]: 181.6
- GEMM (CFU-GEMM), Mean [1, 11]: 141.0
- GM (CFU-GM), Mean [1, 11]: 1119.8
- GEMM (CFU-GEMM), Mean [1, 12]: 224.4
- GM (CFU-GM), Mean [1, 12]: 1444.2
- BFU (BFU-E), Mean [1, 13]: 261.4
- GEMM (CFU-GEMM), Mean [1, 13]: 145.0
- GM (CFU-GM), Mean [1, 13]: 1314.2
- Nucleated Cellularity PBL-LD, Mean ([1]; Table 7 dose response, 1 hour post-injection, 1.5 mg/kg s.c.): 6.94e+06 mL⁻¹
- Nucleated Cellularity PBL-LD, Mean ([1]; Table 7 dose response, 1 hour post-injection, 5 mg/kg s.c.): 7.65e+06 mL⁻¹
- Nucleated Cellularity PBL-LD, Mean ([1]; Table 7 dose response, 1 hour post-injection, 10 mg/kg s.c.): 9.94e+06 mL⁻¹
- BFU (BFU-E), Mean [1, 14]: 108.5
- GEMM (CFU-GEMM), Mean [1, 14]: 62.4
- GM (CFU-GM), Mean [1, 14]: 619.6
- BFU (BFU-E), Mean [1, 15]: 188.9
- GEMM (CFU-GEMM), Mean [1, 15]: 93.8
- GM (CFU-GM), Mean [1, 15]: 588.3
- GEMM (CFU-GEMM), Mean [1, 16]: 79.0
- GM (CFU-GM), Mean [1, 16]: 705.9
- GEMM (CFU-GEMM), Mean [1, 17]: 102.2
- GM (CFU-GM), Mean [1, 17]: 761.4
- Nucleated Cellularity PBL-LD, Mean ([1]; Table 8 comparison, 5 mg/kg s.c., @ - 2′ (2 h)): 9.71e+06 mL⁻¹
- Nucleated Cellularity PBL-LD, Mean ([1]; Table 8 comparison, 5 mg/kg s.c., @ - 15″ ([…])): 8.04e+06 mL⁻¹
- Nucleated Cellularity PBL-LD, Mean ([1]; Table 8 comparison, 5 mg/kg s.c., @ - 30″ (0.5 h)): 8.28e+06 mL⁻¹
- Nucleated Cellularity PBL-LD, Mean ([1]; Table 8 comparison, 5 mg/kg s.c., @ - 60″ (1 h)): 7.34e+06 mL⁻¹
- Peak increase of BFU-E over control (saline injection) [1, 18]: 2.49-2.54 fold
- Peak increase of CFU-GEMM over control (saline injection) [1, 18]: 2.58-2.67 fold
- Peak increase of CFU-GM over control (saline injection) ([1]; time course, 5 mg/kg s.c., 30 min.): 4.21 fold
- Time of peak of nucleated cell mobilization ([1]; time course, 5 mg/kg s.c., approximately): 1-2 hours post-injection
- Number of circulating progenitors ([1]; up to a dose of 5-10 mg/kg s.c.): dose-dependently increased
- pIC50 (CXCR7; CXCR7, Cf2Th.CXCR7, SDF-1α/CXCL12, ligand binding, read-out: IC50 AMD11070): < 5.00
- Inhibitory effect on SDF-1α binding to CXCR7 (CXCR7): little or no inhibitory effect
- Inhibition of SDF-1α binding to CXCR7 (CXCR7; the maximum concentration tested): did not inhibit
- pIC50 (CCR7; CCR7, CCRF-CEM, MIP-3β/CCL19, read-out: IC50 AMD11070): < 4.30
- Inhibitory effect on MIP-3β mediated calcium flux (CCR7) (CCR7): little or no inhibitory effect
- Volume of distribution (VL) [2]: high
- Pharmacodynamic activity, circulating white blood cells (WBCs) ([3]; healthy volunteers and HIV patients): dose- and concentration-related changes
- Increases in WBC counts ([3]; human subjects, dose-dependent, FIG. 9): 2-3 ×
- pIC50 (CXCR3; CXCR3, HEK293F-CXCR3-Gαq15, IP-10/CXCL10, read-out: IC50 AMD11070): < 4.30
- Inhibitory effect on IP10 mediated calcium flux (CXCR3) (CXCR3): little or no inhibitory effect
- pIC50 (BLT1; BLT1, CHO-S-LTB4, LTB4, ligand binding, read-out: IC50 AMD11070): < 4.30
- Inhibitory effect on LTB4 binding to BLT1 (BLT1): little or no inhibitory effect

Source: patent publication US11219621B2, “Methods for treating immunodeficiency disease” (X4 Pharmaceuticals, Inc., priority 2015, dated 2022)
